Experimental data from patent publication US20260262643A1, “HERBICIDAL BENZOXAZINES” (FMC CORPORATION, priority 2022, published 2026).

How the values were obtained:
[1] = test system: barnyardgrass; assay: Test C preemergence; type: in vivo, Echinochloa crusgalli; conditions: 0 to 100 scale (0 no effect, 100 complete control); for Plant response rating, Barnyardgrass: Preemergence, 500 g ai/ha, visual rating after 10 days; for Barnyardgrass plant response rating: Test C, preemergence, 125 g ai/ha
Method in brief: (§1)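 Visual injury ratings on a 0–100 scale (100 = complete control) were made against untreated controls 10 days after treatment in the greenhouse. Compounds, formulated with surfactant in non-phytotoxic solvent, were sprayed on soil preemergence or onto one- to two-leaf plants 2–10 cm tall postemergence.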

[2] = test system: blackgrass; assay: Test C preemergence; type: in vivo, Alopecurus myosuroides; conditions: 0 to 100 scale (0 no effect, 100 complete control); for Plant response rating, Blackgrass: Preemergence, 500 g ai/ha, visual rating after 10 days; for Blackgrass plant response rating: Test C, preemergence, 125 g ai/ha
Method in brief: as §1

[3] = test system: corn; assay: Test C preemergence; type: in vivo, Zea mays; conditions: 0 to 100 scale (0 no effect, 100 complete control); for Plant response rating, Corn: Preemergence, 500 g ai/ha, visual rating after 10 days; for Corn plant response rating: Test C, preemergence, 125 g ai/ha
Method in brief: as §1

[4] = test system: green foxtail; assay: Test C preemergence; type: in vivo, Setaria viridis; conditions: 0 to 100 scale (0 no effect, 100 complete control); for Plant response rating, Foxtail, Green: Preemergence, 500 g ai/ha, visual rating after 10 days; for Foxtail, Green plant response rating: Test C, preemergence, 125 g ai/ha
Method in brief: as §1

[5] = test system: kochia; assay: Test C preemergence; type: in vivo, Bassia scoparia; conditions: 0 to 100 scale (0 no effect, 100 complete control); for Plant response rating, Kochia: Preemergence, 500 g ai/ha, visual rating after 10 days
Method in brief: as §1

[6] = test system: oat, wild; assay: Test C preemergence; type: in vivo, Avena fatua; conditions: 0 to 100 scale (0 no effect, 100 complete control); for Plant response rating, Oat, Wild: Preemergence, 500 g ai/ha, visual rating after 10 days; for Oat, Wild plant response rating: Test C, preemergence, 125 g ai/ha
Method in brief: as §1

[7] = test system: pigweed, palmer; assay: Test C preemergence; type: in vivo, Amaranthus palmeri; conditions: 0 to 100 scale (0 no effect, 100 complete control); for Plant response rating, Pigweed, Palmer: Preemergence, 500 g ai/ha, visual rating after 10 days; for Pigweed, Palmer plant response rating: Test C, preemergence, 125 g ai/ha
Method in brief: as §1

[8] = test system: ragweed; assay: Test C preemergence; type: in vivo, Ambrosia artemisiifolia; conditions: 0 to 100 scale (0 no effect, 100 complete control); for Plant response rating, Ragweed: Preemergence, 500 g ai/ha, visual rating after 10 days; for Ragweed plant response rating: Test C, preemergence, 125 g ai/ha
Method in brief: as §1

[9] = test system: ryegrass, Italian; assay: Test C preemergence; type: in vivo, Lolium multiflorum; conditions: 0 to 100 scale (0 no effect, 100 complete control); for Plant response rating, Ryegrass, Italian: Preemergence, 500 g ai/ha, visual rating after 10 days; for Ryegrass, Italian plant response rating: Test C, preemergence, 125 g ai/ha
Method in brief: as §1

[10] = test system: soybean; assay: Test C preemergence; type: in vivo, Glycine max; conditions: 0 to 100 scale (0 no effect, 100 complete control); for Plant response rating, Soybean: Preemergence, 500 g ai/ha, visual rating after 10 days; for Soybean plant response rating: Test C, preemergence, 125 g ai/ha
Method in brief: as §1

[11] = test system: wheat; assay: Test C preemergence; type: in vivo, Triticum aestivum; conditions: 0 to 100 scale (0 no effect, 100 complete control); for Plant response rating, Wheat: Preemergence, 500 g ai/ha, visual rating after 10 days; for Wheat plant response rating: Test C, preemergence, 125 g ai/ha
Method in brief: as §1

[12] = test system: barnyardgrass; assay: Test C postemergence; type: in vivo, Echinochloa crusgalli; conditions: 10 days
Method in brief: as §1

[13] = test system: blackgrass; assay: Test C postemergence; type: in vivo, Alopecurus myosuroides; conditions: 10 days
Method in brief: as §1

[14] = test system: corn; assay: Test C postemergence; type: in vivo, Zea mays; conditions: 10 days
Method in brief: as §1

[15] = test system: green foxtail; assay: Test C postemergence; type: in vivo, Setaria viridis; conditions: 10 days
Method in brief: as §1

[16] = test system: kochia; assay: Test C postemergence; type: in vivo, Bassia scoparia; conditions: 10 days
Method in brief: as §1

[17] = test system: oat, wild; assay: Test C postemergence; type: in vivo, Avena fatua; conditions: 10 days
Method in brief: as §1

[18] = test system: pigweed, palmer; assay: Test C postemergence; type: in vivo, Amaranthus palmeri; conditions: 10 days
Method in brief: as §1

[19] = test system: ragweed; assay: Test C postemergence; type: in vivo, Ambrosia artemisiifolia; conditions: 10 days
Method in brief: as §1

[20] = test system: ryegrass, Italian; assay: Test C postemergence; type: in vivo, Lolium multiflorum; conditions: 10 days
Method in brief: as §1

[21] = test system: soybean; assay: Test C postemergence; type: in vivo, Glycine max; conditions: 10 days
Method in brief: as §1

[22] = test system: wheat; assay: Test C postemergence; type: in vivo, Triticum aestivum; conditions: 10 days
Method in brief: as §1

[23] = test system: galium; assay: Test C postemergence; type: in vivo, Galium aparine; conditions: 10 days
Method in brief: as §1

[24] = test system: horseweed; assay: Test C postemergence; type: in vivo, Erigeron canadensis; conditions: 10 days
Method in brief: as §1

[25] = test system: barnyardgrass; assay: Test D flooded paddy test; type: in vivo, Echinochloa crus-galli; conditions: 250 g ai/ha, applied to paddy water, visual rating after 13 to 14 days, scale 0 to 100 (0 no effect, 100 complete control)
Method in brief: (§2)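 Visual ratings from 0, meaning no effect, to 100, meaning complete control, were assigned against untreated controls 13 to 14 days after compounds were added to the floodwater of pots kept 3 cm deep, with plants at the 2-leaf stage.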

[26] = test system: ducksalad; assay: Test D flooded paddy test; type: in vivo, Heteranthera limosa; conditions: 250 g ai/ha, applied to paddy water, visual rating after 13 to 14 days, scale 0 to 100 (0 no effect, 100 complete control)
Method in brief: as §2

[27] = test system: rice; assay: Test D flooded paddy test; type: in vivo, Oryza sativa; conditions: 250 g ai/ha, applied to paddy water, visual rating after 13 to 14 days, scale 0 to 100 (0 no effect, 100 complete control)
Method in brief: as §2

[28] = test system: sedge, umbrella; assay: Test D flooded paddy test; type: in vivo, Cyperus difformis; conditions: 250 g ai/ha, applied to paddy water, visual rating after 13 to 14 days, scale 0 to 100 (0 no effect, 100 complete control)
Method in brief: as §2

[29] = 125 g ai/ha, postemergence, 0 to 100 scale, 0 no effect, 100 complete control
[30] = Postemergence, 500 g ai/ha, visual 0 to 100 scale (0 no effect, 100 complete control)

Cc1cccc2c1O[C@@H](C)CN2C(=O)c1cccc(-n2cnc(C#N)c2)c1 [Compound 233]
Plant response rating, Barnyardgrass [1]: 60
Barnyardgrass plant response rating [1]: 0
Plant response rating, Blackgrass [2]: 30
Blackgrass plant response rating [2]: 10
Plant response rating, Corn [3]: 20
Corn plant response rating [3]: 0
Plant response rating, Foxtail, Green [4]: 80
Foxtail, Green plant response rating [4]: 0
Plant response rating, Kochia [5]: 0
Kochia plant response rating ([5]; Test C, preemergence, 125 g ai/ha): 0
Plant response rating, Oat, Wild [6]: 0
Oat, Wild plant response rating [6]: 0
Plant response rating, Pigweed, Palmer [7]: 0
Pigweed, Palmer plant response rating [7]: 0
Plant response rating, Ragweed [8]: 70
Ragweed plant response rating [8]: 0
Plant response rating, Ryegrass, Italian [9]: 60
Ryegrass, Italian plant response rating [9]: 10
Plant response rating, Soybean [10]: 10
Soybean plant response rating [10]: 0
Plant response rating, Wheat [11]: 0
Wheat plant response rating [11]: 0
Plant response rating, Barnyardgrass [12, 29]: 10
Plant response rating, Barnyardgrass [12, 30]: 20
Plant response rating, Blackgrass [13, 29]: 0
Plant response rating, Blackgrass [13, 30]: 40
Plant response rating, Corn [14, 29]: 0
Plant response rating, Corn [14, 30]: 20
Plant response rating, Foxtail, Green [15, 29]: 20
Plant response rating, Foxtail, Green [15, 30]: 20
Plant response rating, Kochia [16, 29]: 0
Plant response rating, Kochia [16, 30]: 10
Plant response rating, Oat, Wild [17, 29]: 0
Plant response rating, Oat, Wild [17, 30]: 20
Plant response rating, Pigweed, Palmer [18, 29]: 0
Plant response rating, Pigweed, Palmer [18, 30]: 10
Plant response rating, Ragweed [19, 29]: 0
Plant response rating, Ragweed [19, 30]: 20
Plant response rating, Ryegrass, Italian [20, 29]: 0
Plant response rating, Ryegrass, Italian [20, 30]: 60
Plant response rating, Soybean [21, 29]: 70
Plant response rating, Soybean [21, 30]: 80
Plant response rating, Wheat [22, 29]: 10
Plant response rating, Wheat [22, 30]: 10
Plant response rating, Galium [23, 29]: 50
Plant response rating, Horseweed [24, 29]: 0
Plant response rating, Horseweed [24, 30]: 0
Plant response rating, Barnyardgrass (Flood) [25]: 0
Plant response rating, Ducksalad (Flood) [26]: 0
Plant response rating, Rice (Flood) [27]: 0
Plant response rating, Sedge, Umbrella (Flood) [28]: 0

CC(C)c1ncn(-c2ccc([S+]([O-])C(F)(F)F)c(C(=O)N3C[C@H](C)Oc4c(Cl)cccc43)c2)n1 (stereo partly drawn) [Compound 191]
Plant response rating, Barnyardgrass [1]: 0
Barnyardgrass plant response rating [1]: 0
Plant response rating, Blackgrass [2]: 20
Blackgrass plant response rating [2]: 0
Plant response rating, Corn [3]: 0
Corn plant response rating [3]: 0
Plant response rating, Foxtail, Green [4]: 0
Foxtail, Green plant response rating [4]: 0
Plant response rating, Kochia [5]: 0
Plant response rating, Oat, Wild [6]: 0
Oat, Wild plant response rating [6]: 0
Plant response rating, Pigweed, Palmer [7]: 0
Pigweed, Palmer plant response rating [7]: 0
Plant response rating, Ragweed [8]: 0
Ragweed plant response rating [8]: 0
Plant response rating, Ryegrass, Italian [9]: 20
Ryegrass, Italian plant response rating [9]: 0
Plant response rating, Soybean [10]: 0
Soybean plant response rating [10]: 0
Plant response rating, Wheat [11]: 0
Wheat plant response rating [11]: 0
Plant response rating, Barnyardgrass [12, 29]: 10
Plant response rating, Barnyardgrass [12, 30]: 10
Plant response rating, Blackgrass [13, 29]: 0
Plant response rating, Blackgrass [13, 30]: 0
Plant response rating, Corn [14, 29]: 0
Plant response rating, Corn [14, 30]: 0
Plant response rating, Foxtail, Green [15, 29]: 0
Plant response rating, Foxtail, Green [15, 30]: 0
Plant response rating, Kochia [16, 29]: 20
Plant response rating, Kochia [16, 30]: 20
Plant response rating, Oat, Wild [17, 29]: 0
Plant response rating, Oat, Wild [17, 30]: 0
Plant response rating, Pigweed, Palmer [18, 29]: 0
Plant response rating, Pigweed, Palmer [18, 30]: 30
Plant response rating, Ragweed [19, 29]: 0
Plant response rating, Ragweed [19, 30]: 0
Plant response rating, Ryegrass, Italian [20, 29]: 0
Plant response rating, Ryegrass, Italian [20, 30]: 0
Plant response rating, Soybean [21, 29]: 40
Plant response rating, Soybean [21, 30]: 90
Plant response rating, Wheat [22, 29]: 10
Plant response rating, Wheat [22, 30]: 10
Plant response rating, Galium [23, 29]: 0
Plant response rating, Galium [23, 30]: 50
Plant response rating, Horseweed [24, 29]: 0
Plant response rating, Horseweed [24, 30]: 0
Plant response rating, Barnyardgrass (Flood) [25]: 0
Plant response rating, Ducksalad (Flood) [26]: 0
Plant response rating, Rice (Flood) [27]: 0
Plant response rating, Sedge, Umbrella (Flood) [28]: 0
